This is an account of results in PubChem BioAssay AID244 (DTP/NCI, 2004).

This assay relates to CD2F1 mice, Lymphoma 8 ip, survival T/C. Kind of assay: NCI In Vivo Anticancer Drug Screen. Data for tumor model Lymphoma 8 (intraperitoneal) in CD2F1 (CDF1) mice. The settings on record: higher = longer survival. How it is done:
The antitumor activity of compounds was measured in mice bearing transplantable tumors. Survival or tumor size were measured and the results are expressed as the measurement made in the treated group (T) divided by the measurement made in the vehicle treated control group (C). The tumor model used in this assay is Lymphoma 8 (intraperitoneal) in CD2F1 (CDF1) mice

The mark [1] stands for this setting: endpoint: median survival time, dose: 75.0 mg/kg/injection, schedule: Q01DX005 (ip), vehicle: saline.
The mark [2] stands for this setting: endpoint: median survival time, dose: 150.0 mg/kg/injection, schedule: Q01DX005 (ip), vehicle: saline.
The mark [3] stands for this setting: endpoint: survival time, mean or median, dose: 6.25 mg/kg/injection, schedule: Q01DX010 (ip), vehicle: saline.
[4] abbreviates: endpoint: survival time, mean or median, dose: 12.5 mg/kg/injection, schedule: Q01DX010 (ip), vehicle: saline.
Setting [5] is: endpoint: survival time, mean or median, dose: 25.0 mg/kg/injection, schedule: Q01DX010 (ip), vehicle: saline.
[6] abbreviates: endpoint: median survival time, dose: 12.5 mg/kg/injection, schedule: Q01DX005 (ip), vehicle: saline.
Setting [7] is: endpoint: median survival time, dose: 25.0 mg/kg/injection, schedule: Q01DX005 (ip), vehicle: saline.
Where [8] appears, read: endpoint: median survival time, dose: 50.0 mg/kg/injection, schedule: Q01DX005 (ip), vehicle: saline.
Setting [9] is: endpoint: median survival time, dose: 100.0 mg/kg/injection, schedule: Q01DX005 (ip), vehicle: saline.
Setting [10] is: endpoint: median survival time, dose: 12.5 mg/kg/injection, schedule: Q01DX001 (ip), vehicle: saline.
[11] abbreviates: endpoint: median survival time, dose: 25.0 mg/kg/injection, schedule: Q01DX001 (ip), vehicle: saline.
The mark [12] stands for this setting: endpoint: median survival time, dose: 100.0 mg/kg/injection, schedule: Q01DX010 (ip), vehicle: saline.

Structures are written as SMILES. “And” between values parts separate entries of the source, which are not always exact repeats. Equal values may be shown once. Results filed as inconclusive are left out.

Consider `CNC(=O)CC(N)C(=O)O` (configuration not stated), for which the T/C is, setting by setting: under setting [1], 96 % of control and 102 % of control; under setting [2], 107 % of control and 113 % of control; (endpoint: median survival time, dose: 300.0 mg/kg/injection, schedule: Q01DX005 (ip), vehicle: saline) 93 % of control and 113 % of control; (endpoint: median survival time, dose: 600.0 mg/kg/injection, schedule: Q01DX005 (ip), vehicle: saline) 95 % of control and 114 % of control; (endpoint: median survival time, dose: 1200.0 mg/kg/injection, schedule: Q01DX005 (ip), vehicle: saline) 102 % of control.

Take `C[C@H]1C(=O)O[C@@H]2CCN3CC=C(COC(=O)[C@](C)(O)[C@@]1(C)O)[C@H]23`: the T/C by setting is: (endpoint: survival time, mean or median, dose: 3.13 mg/kg/injection, schedule: Q01DX010 (ip), vehicle: saline) 100 % of control; under setting [3], 100 % of control; under setting [4], 100 % of control; under setting [5], 100 % of control.

As for `CN(C)C(=O)/N=N/C(=O)N(C)C`, the T/C runs as follows: under setting [6], 95 % of control and 96 % of control and 98 % of control; under setting [7], 90 % of control and 92 % of control and 96 % of control; under setting [8], 90 % of control and 91 % of control and 104 % of control; under setting [9], 88 % of control and 90 % of control (2×).

For `CC(=O)NC(CCC(=O)C=[N+]=N)C(=O)O` (configuration not stated), the T/C reads like this: (endpoint: median survival time, dose: 0.5 mg/kg/injection, schedule: Q01DX002 (ip), vehicle: saline) 100 % of control; (endpoint: median survival time, dose: 0.5 mg/kg/injection, schedule: Q04DX002 (ip), vehicle: saline) 96 % of control; (endpoint: median survival time, dose: 1.0 mg/kg/injection, schedule: Q01DX002 (ip), vehicle: saline) 103 % of control; (endpoint: median survival time, dose: 1.0 mg/kg/injection, schedule: Q04DX002 (ip), vehicle: saline) 114 % of control; (endpoint: median survival time, dose: 2.0 mg/kg/injection, schedule: Q01DX002 (ip), vehicle: saline) 106 % of control; (endpoint: median survival time, dose: 2.0 mg/kg/injection, schedule: Q04DX002 (ip), vehicle: saline) 107 % of control.

Regarding `O=NN(CCCl)C(=O)NCCCl`, the T/C reads like this: under setting [10], 153 % of control; under setting [6], 157 % of control; under setting [11], 261 % of control; under setting [7], 265 % of control; under setting [8], 69 % of control; under setting [3], 160 % of control and 165 % of control. Moreover, the T/C under setting [4] was 120 % of control and the T/C under setting [5] is 90 % of control.

`C[C@]12C=CC(=O)C=C1CC[C@@H]1[C@@H]2C(=O)C[C@@]2(C)[C@H]1CC[C@]2(O)C(=O)CO`: the T/C (endpoint: median survival time, dose: 12.5 mg/kg/injection, schedule: Q01DX005 (sc), vehicle: steriod suspending solution) is 105 % of control and 107 % of control and 108 % of control; the T/C (endpoint: median survival time, dose: 25.0 mg/kg/injection, schedule: Q01DX005 (sc), vehicle: steriod suspending solution) was 96 % of control and 104 % of control and 108 % of control; the T/C (endpoint: median survival time, dose: 50.0 mg/kg/injection, schedule: Q01DX005 (sc), vehicle: steriod suspending solution) was 96 % of control and 99 % of control and 100 % of control; the T/C (endpoint: median survival time, dose: 100.0 mg/kg/injection, schedule: Q01DX005 (sc), vehicle: steriod suspending solution) is 100 % of control and 103 % of control and 104 % of control; the T/C (endpoint: median survival time, dose: 200.0 mg/kg/injection, schedule: Q01DX005 (sc), vehicle: steriod suspending solution) was 111 % of control and 112 % of control.

On to `Nc1ncn(C2OC(CO)C(O)C2O)c(=O)n1` (configuration not stated), for which the T/C (endpoint: median survival time, dose: 0.75 mg/kg/injection, schedule: Q01DX005 (ip), vehicle: saline) was 116 % of control and the T/C (endpoint: median survival time, dose: 3.0 mg/kg/injection, schedule: Q01DX005 (ip), vehicle: saline) was 158 % of control.

Consider `COc1cccc2c1C(=O)c1c(O)c3c(c(O)c1C2=O)C[C@@](O)(C(C)=O)C[C@@H]3OC1CC(N)C(O)C(C)O1` (some centres not stated), for which the T/C by setting is: (endpoint: median survival time, dose: 1.25 mg/kg/injection, schedule: Q01DX005 (ip), vehicle: saline) 96 % of control and 101 % of control; (endpoint: median survival time, dose: 2.5 mg/kg/injection, schedule: Q01DX005 (ip), vehicle: saline) 100 % of control and 105 % of control; (endpoint: median survival time, dose: 5.0 mg/kg/injection, schedule: Q01DX005 (ip), vehicle: saline) 123 % of control; (endpoint: median survival time, dose: 10.0 mg/kg/injection, schedule: Q01DX005 (ip), vehicle: saline) 82 % of control.

On to `Nc1nc(=S)c2ncn(C3OC(CO)C(O)C3O)c2[nH]1` (configuration not stated), for which the T/C (endpoint: survival time, mean or median, dose: 4.0 mg/kg/injection, schedule: Q01DX010 (ip), vehicle: saline) was 150 % of control; the T/C (endpoint: survival time, mean or median, dose: 8.0 mg/kg/injection, schedule: Q01DX010 (ip), vehicle: saline) is 118 % of control; the T/C (endpoint: survival time, mean or median, dose: 16.0 mg/kg/injection, schedule: Q01DX010 (ip), vehicle: saline) was 86 % of control.

In the case of `NC(CC(=O)O)C(=O)O` (configuration not stated), the T/C (endpoint: median survival time, dose: 100.0 mg/kg/injection, schedule: Q01DX005 (ip), vehicle: water) was 95 % of control and 100 % of control; the T/C (endpoint: median survival time, dose: 200.0 mg/kg/injection, schedule: Q01DX005 (ip), vehicle: water) is 100 % of control; the T/C (endpoint: median survival time, dose: 400.0 mg/kg/injection, schedule: Q01DX005 (ip), vehicle: water) was 100 % of control; the T/C (endpoint: median survival time, dose: 800.0 mg/kg/injection, schedule: Q01DX005 (ip), vehicle: water) is 91 % of control.

`NC(CC(=O)CCl)C(=O)O` (configuration not stated): the T/C is 100 % of control (endpoint: median survival time, dose: 1.6 mg/kg/injection, schedule: Q01DX005 (ip), vehicle: saline); 92 % of control and 96 % of control and 108 % of control (endpoint: median survival time, dose: 3.13 mg/kg/injection, schedule: Q01DX005 (ip), vehicle: saline); 100 % of control and 103 % of control and 108 % of control (endpoint: median survival time, dose: 6.25 mg/kg/injection, schedule: Q01DX005 (ip), vehicle: saline); 100 % of control under setting [10]; 100 % of control and 103 % of control and 107 % of control under setting [6]; 100 % of control under setting [11]. Further, the T/C reads like this: under setting [7], 111 % of control and 114 % of control and 120 % of control; (endpoint: median survival time, dose: 50.0 mg/kg/injection, schedule: Q01DX001 (ip), vehicle: saline) 108 % of control; under setting [8], 37 % of control; (endpoint: median survival time, dose: 100.0 mg/kg/injection, schedule: Q01DX001 (ip), vehicle: saline) 91 % of control.

In the case of `CCSCCC(N)C(=O)O` (configuration not stated), the T/C runs as follows: (endpoint: median survival time, dose: 37.5 mg/kg/injection, schedule: Q01DX005 (ip), vehicle: saline) 107 % of control and 109 % of control; under setting [1], 100 % of control and 103 % of control; under setting [2], 81 % of control.

As for `NC(=O)C(N)CCO` (configuration not stated), the T/C is, setting by setting: (endpoint: median survival time, dose: 50.0 mg/kg/injection, schedule: Q01DX009 (ip), vehicle: saline) 100 % of control and 102 % of control and 94 % of control; (endpoint: median survival time, dose: 100.0 mg/kg/injection, schedule: Q01DX009 (ip), vehicle: saline) 97 % of control [middle of 4 runs]; under setting [12], 87 % of control and 88 % of control; (endpoint: median survival time, dose: 200.0 mg/kg/injection, schedule: Q01DX009 (ip), vehicle: saline) 98 % of control [middle of 4 runs]; (endpoint: median survival time, dose: 200.0 mg/kg/injection, schedule: Q01DX010 (ip), vehicle: saline) 91 % of control [middle of 4 runs]; (endpoint: median survival time, dose: 400.0 mg/kg/injection, schedule: Q01DX009 (ip), vehicle: saline) 100 % of control [middle of 4 runs]. Also, under “endpoint: median survival time, dose: 400.0 mg/kg/injection, schedule: Q01DX010 (ip), vehicle: saline”, the T/C was 95 % of control [middle of 4 runs].

With `O=CC(S)CO` (configuration not stated), the T/C was 92 % of control (endpoint: median survival time, dose: 25.0 mg/kg/injection, schedule: Q01DX010 (ip), vehicle: saline); 92 % of control (endpoint: median survival time, dose: 50.0 mg/kg/injection, schedule: Q01DX010 (ip), vehicle: saline); 100 % of control under setting [12].

Take `NC(=O)c1[nH]nc(C2OC(CO)C(O)C2O)c1O` (configuration not stated): the T/C was 103 % of control (endpoint: median survival time, dose: 2.0 mg/kg/injection, schedule: Q04DX003 (ip), vehicle: saline); 91 % of control (endpoint: median survival time, dose: 4.0 mg/kg/injection, schedule: Q04DX003 (ip), vehicle: saline); 123 % of control (endpoint: median survival time, dose: 8.0 mg/kg/injection, schedule: Q04DX003 (ip), vehicle: saline); 75 % of control (endpoint: median survival time, dose: 16.0 mg/kg/injection, schedule: Q04DX003 (ip), vehicle: saline); 53 % of control (endpoint: median survival time, dose: 32.0 mg/kg/injection, schedule: Q04DX003 (ip), vehicle: saline).

Take `NC(CS(N)(=O)=O)C(=O)O` (configuration not stated): the T/C under setting [8] was 92 % of control; the T/C under setting [9] was 92 % of control; the T/C (endpoint: median survival time, dose: 200.0 mg/kg/injection, schedule: Q01DX005 (ip), vehicle: saline) is 96 % of control and 97 % of control; the T/C (endpoint: median survival time, dose: 400.0 mg/kg/injection, schedule: Q01DX005 (ip), vehicle: saline) is 92 % of control and 94 % of control.
